Read-outs that look alike come from different tables or passages of the source.
Assays:
[1] = system: reactive oxygen species; type: cell-based, mouse; conditions: for ROS (composite Z-score): normalized score vs mock-treated (DMSO) wells
[2] = system: cellular dehydrogenase activity; conditions: for MTT (composite Z-score): normalized score vs mock-treated (DMSO) wells
[3] = system: cytochrome c; type: cell-based, mouse; conditions: for cyt c (composite Z-score): normalized score vs mock-treated (DMSO) wells
Sequence of cytochrome c (P62897 whole entry): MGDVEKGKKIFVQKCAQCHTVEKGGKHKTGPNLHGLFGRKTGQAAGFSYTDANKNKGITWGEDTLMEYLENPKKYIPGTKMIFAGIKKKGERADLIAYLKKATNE

[4] = system: OXPHOS gene expression; type: cell-based, mouse; conditions: for GE-HTS (composite Z-score): normalized score vs mock-treated (DMSO) wells
[5] = system: nuOXPHOS transcripts; type: cell-based, mouse; conditions: for nucOX (composite Z-score): normalized score vs mock-treated (DMSO) wells
[6] = system: mtOXPHOS transcripts; type: cell-based, mouse; conditions: for mitoOX (composite Z-score): normalized score vs mock-treated (DMSO) wells
[7] = system: mitochondrial membrane potential; type: cell-based, mouse; conditions: for ΔΨm (composite Z-score): normalized score vs mock-treated (DMSO) wells
[8] = system: C2C12 myotubes; conditions: for Viability (composite Z-score): normalized score vs mock-treated (DMSO) wells
[9] = composite Z-score vs DMSO, Conc 20 μM
[10] = composite Z-score vs mock-treated (DMSO) wells, concentration of each compound in μM
[11] = composite Z-score vs mock-treated (DMSO) wells, Conc 20 μM
[12] = composite Z-score vs DMSO wells, Conc 20 μM
[13] = 14.44 μM, composite Z-score vs DMSO

## NC(=O)C1(O)C[C@@H](O)C(O)[C@H](O)C1 (stereo partly drawn) [quinamide]
[1]; Conc 20 μM
  ROS (composite Z-score): 0.405
[2]; Conc 20 μM
  MTT (composite Z-score): −1.034
[3]; Conc 20 μM
  cyt c (composite Z-score): 0.359
[4]; Conc 20 μM
  GE-HTS (composite Z-score): −0.139
[5]; Conc 20 μM
  nucOX (composite Z-score): −0.529
[6]; Conc 20 μM
  mitoOX (composite Z-score): 0.735
[7]; Conc 20 μM
  ΔΨm (composite Z-score): −0.518
[8]; Conc 20 μM
  Viability (composite Z-score): −0.397

## CCCc1occc(=O)c1CCO [2-propyl-3-hydroxyethylenepyran-4-one]
[1]; Conc 20 μM
  ROS (composite Z-score): 0.195
[2]; Conc 20 μM
  MTT (composite Z-score): −0.906
[3]; Conc 20 μM
  cyt c (composite Z-score): −0.100
[4]; Conc 20 μM
  GE-HTS (composite Z-score): 0.682
[5]; Conc 20 μM
  nucOX (composite Z-score): 0.870
[6]; Conc 20 μM
  mitoOX (composite Z-score): 0.202
[7]; Conc 20 μM
  ΔΨm (composite Z-score): −0.741
[8]; Conc 20 μM
  Viability (composite Z-score): 0.162

## totarol acetate
[1]; [9]
  ROS: 0.452
[2]; [9]
  MTT: 0.730
[3]; [9]
  cyt c: 1.207
[4]; [9]
  GE-HTS: 0.574
[5]; [9]
  nucOX: 0.830
[6]; [9]
  mitoOX: −0.125
[7]; [9]
  ΔΨm: −0.556
[8]; [9]
  Viability: −0.273

## C[C@@H]1NCCc2cc(O)c(O)cc21 [salsolinol]
[1]; [10]
  ROS: −0.248
[2]; [10]
  MTT: −1.113
[3]; [10]
  cyt c: −0.994
[4]; [10]
  GE-HTS: −0.284
[5]; [10]
  nucOX: −0.197
[6]; [10]
  mitoOX: −0.397
[7]; [10]
  ΔΨm: −0.160
[8]; [10]
  Viability: −1.127

## O=C(CCBr)N1CCN(C(=O)CCBr)CC1 [pipobroman]
[1]
  ROS: 0.342
[2]
  MTT: −1.907
[3]
  cyt c: 0.441
[4]
  GE-HTS: −1.074
[5]
  nucOX: −0.918
[6]
  mitoOX: −1.219
[7]
  ΔΨm: −0.580
[8]
  Viability: −0.792

## Cc1cc(O)c2c(O)c3c(O)cccc3cc2c1 [chrysarobin]
[1]; [11]
  ROS: 0.805
[2]; [11]
  MTT: −1.646
[3]; [11]
  cyt c: −0.074
[4]; [11]
  GE-HTS: −1.153
[5]; [11]
  nucOX: −1.387
[6]; [11]
  mitoOX: −0.401
[7]; [11]
  ΔΨm: −0.726
[8]; [11]
  Viability: −0.685

## CC1=CCc2c(cc3oc(C)cc(=O)c3c2O)OC1 [ptaeroxylin]
[1]; [11]
  ROS: 0.259
[2]; [11]
  MTT: 0.160
[3]; [11]
  cyt c: 0.599
[4]; [11]
  GE-HTS: −0.853
[5]; [11]
  nucOX: −0.907
[6]; [11]
  mitoOX: −0.641
[7]; [11]
  ΔΨm: 0.238
[8]; [11]
  Viability: −0.025

## CC(=O)O[C@H]1C[C@H](O[C@H]2[C@@H](O)C[C@H](O[C@H]3[C@@H](O)C[C@H](O[C@H]4CC[C@@]5(C)[C@H](CC[C@@H]6[C@@H]5C[C@@H](O)[C@]5(C)[C@@H](C7=CC(=O)OC7)CC[C@]65O)C4)O[C@@H]3C)O[C@@H]2C)O[C@H](C)[C@H]1O[C@@H]1O[C@H](CO)[C@@H](O)[C@H](O)[C@H]1O [lanatoside C]
[1]; [12]
  ROS: −0.033
[2]; [12]
  MTT: −0.887
[3]; [12]
  cyt c: 0.664
[4]; [12]
  GE-HTS: −0.931
[5]; [12]
  nucOX: −0.844
[6]; [12]
  mitoOX: −0.935
[7]; [12]
  ΔΨm: −1.105
[8]; [12]
  Viability: −0.704

## CCOC(=O)c1c(C)cc(O)c(C=O)c1O [haematommic acid, ethyl ester]
[1]; [11]
  ROS: 0.478
[2]; [11]
  MTT: −0.761
[3]; [11]
  cyt c: −0.104
[4]; [11]
  GE-HTS: 0.450
[5]; [11]
  nucOX: 0.387
[6]; [11]
  mitoOX: 0.537
[7]; [11]
  ΔΨm: −0.120
[8]; [11]
  Viability: −0.557

## CCN1C[C@]2(C)CC[C@H](OC)[C@@]34C1[C@]1(OCO[C@@]15C[C@H](OC)[C@H]1C[C@]3(O)[C@@H]5[C@H]1OC)[C@@H](OC(C)=O)[C@H]24 [deltaline]
[1]; Conc 20 μM
  ROS (composite Z-score): 1.654
[2]; Conc 20 μM
  MTT (composite Z-score): −1.231
[3]; Conc 20 μM
  cyt c (composite Z-score): 0.271
[4]; Conc 20 μM
  GE-HTS (composite Z-score): −0.220
[5]; Conc 20 μM
  nucOX (composite Z-score): −0.062
[6]; Conc 20 μM
  mitoOX (composite Z-score): −0.422
[7]; Conc 20 μM
  ΔΨm (composite Z-score): −0.496
[8]; Conc 20 μM
  Viability (composite Z-score): −0.735

## CC(C)(C)NCC(O)c1cc(Cl)c(N)c(Cl)c1 (stereo not drawn) [clenbuterol]
[1]; [13]
  ROS: 0.914
[2]; [13]
  MTT: −1.330
[3]; [13]
  cyt c: −0.261
[4]; [13]
  GE-HTS: 0.054
[5]; [13]
  nucOX: 0.063
[6]; [13]
  mitoOX: 0.011
[7]; [13]
  ΔΨm: −1.139
[8]; [13]
  Viability: 0.134

## CC(=O)N[C@@H](CC(=O)N[C@@H](CCC(=O)O)C(=O)O)C(=O)O [spaglumic acid]
[1]; [12]
  ROS: 0.615
[2]; [12]
  MTT: −0.779
[3]
  cyt c: 0.600
[3]; [12]
  cyt c: 0.191
[4]; [12]
  GE-HTS: 0.120
[5]; [12]
  nucOX: 0.307
[6]; [12]
  mitoOX: −0.284
[7]; [12]
  ΔΨm: −0.685
[8]; [12]
  Viability: −0.009

## N[C@@H](CCC(=O)N[C@@H](CSC(CC(=O)O)C(=O)O)C(=O)NCC(=O)O)C(=O)O (stereo partly drawn) [S-(1,2-dicarboxyethyl)glutathione]
[1]; [9]
  ROS: 0.258
[2]; [9]
  MTT: −0.635
[3]; [9]
  cyt c: −0.411
[4]; [9]
  GE-HTS: −0.364
[5]; [9]
  nucOX: −0.400
[6]; [9]
  mitoOX: −0.219
[7]; [9]
  ΔΨm: 0.038
[8]; [9]
  Viability: −0.049
